The subject of the assay is HSP70. Description: Hsp70 Activity Essay (HSP70 ELISA on lysates of MDA435 cells). The note with it: concentration that increases HSP70 to 50% of maximum increase by N′1,N′3-dimethyl-N′1,N′3-di(phenylcarbonothioyl)malonohydrazide. The assay is classed as cell-based. The procedure: Each well was plated with MDA435 cells using DMEM 10% FBS Phenol-red free medium 2.5 k/well and incubated in a 37° C./5% CO2 incubator for a minimum of 6 hours to obtain good cell adherence.
Dilutions of each test compound were prepared in DMSO and DMEM 10% FBS Phenol-red free medium. The final concentration in each well was 1250 nM, 125 nM, 12.5 nM or 1.25 nM of test compound and 0.25% DMSO. 0.25% DMSO was used as a negative control. Lysis buffer (any lysis buffer suitable for use in the Assay Designs kit, e.g., such as that described in the kit instructions) was then added (amount used is one quarter of the volume already present in each plate) and the mixtures were then shaken for 10 minutes.
150 μL of “Can Get Signal” Immunoreaction Enhancer Solution (Solution 1 for primary antibody, TOYOBO, Catalogue No. NKB-101) were added to each of a series of ELISA plates. The ELISA plates were obtained from the HSP70 ELISA Kit (catalogue number EKS-700B) purchased from Assay Designs (Ann Arbor, Mich.). After the cells were lysed, 50 μL of lysate were taken from each well and added to an ELISA plate, resulting in a 4 fold dilution of the lysate (50 μL of lysate and 150 μL of Can Get Signal solution). The plates were covered with adhesive tape and incubated overnight at 4° C.;
In the morning, the liquid was aspirated from all wells and 400 μL of Washing Buffer made from 20× concentrate provided in the ELISA Kit and distilled water were added and then removed by aspiration. The addition of Washing Buffer and aspiration was repeated four times. After the fourth wash, the plate were inverted to a paper towel and carefully patted dry. 100 μL of HSP70 antibody provided in ELISA Kit were added to each well. Each well was covered with adhesive tape and incubated for one hour at room temperature. Washing Buffer was then added followed by removal with aspiration. The addition of Washing Buffer and aspiration was repeated four times, after which the plates were inverted and patted dry. 100 μL of HSP70 conjugate (provided in the ELISA Kit) were added to the wells. Each well was then covered with adhesive tape and incubated for one hour at room temperature. Washing Buffer was then added followed by removal with aspiration. The addition of Washing Buffer and aspiration was repeated four times, after which the plates were inverted and patted dry.
100 μL of the TMB Substrate (obtained from the ELISA Kit) were added to the wells (color development was visible in 1 minute). The wells were incubated until saturated color development (usually 5-15 minutes). Stop Solution 2 (provided in the ELISA Kit) was added in the same order TMB Substrate was added. The OD450 was then obtained using a plate reader. The EC50 for the compounds was calculated using N′^1,N′^3-dimethyl-N′^1,N′^3-di(phenylcarbonothioyl)malonohydrazide on the same plate as a control (concentration that increases HSP70 to 50% of maximum increase by N′^1,N′^3-dimethyl-N′^1,N′^3-di(phenylcarbonothioyl)malonohydrazide). The EC50 for each of the compounds tested is shown in example 1.

pEC50: −log10 of the molar value.

By pEC50 is commonly meant −log10 of the EC50, conventionally taken in molar units. Read a high pEC50 as a small EC50. `CN(NC(=O)CS(=O)(=O)NN(C)C(=S)N1CCCC1)C(=S)c1ccccc1` [Compound 51, N′-methyl-2-(2-methyl-2-(phenylcarbonothioyl)hydrazinyl)-2-oxo-N′-(pyrrolidine-1-carbonothioyl)-ethanesulfonohydrazide] showed a pEC50 of 7.24.
Regarding `CN(NC(=O)CS(=O)(=O)NN(C)C(=S)N1CCCCC1)C(=S)c1ccccc1` [Compound 52, N′-methyl-2-(2-methyl-2-(phenylcarbonothioyl)hydrazinyl)-2-oxo-N′-(piperidine-1-carbonothioyl)-ethanesulfonohydrazide], the pEC50 was 7.06. The pEC50 values of the last two molecules are within 0.2 log units of each other.
Consider `CN(NS(=O)(=O)CC(=O)NN(C)C(=S)N1CCCC1)C(=S)c1ccccc1` [Compound 53, N′-methyl-2-(2-methyl-2-(pyrrolidine-1-carbonothioyl)hydrazinyl)-2-oxo-N′-(phenylcarbonothioyl)ethane-sulfonohydrazide], for which the pEC50 was 6.99.
The value for `CN(NS(=O)(=O)CC(=O)NN(C)C(=S)N1CCCCC1)C(=S)c1ccccc1` [Compound 54, N′-methyl-2-(2-methyl-2-(piperidine-1-carbonothioyl)hydrazinyl)-2-oxo-N′-(phenylcarbonothioyl)ethane-sulfonohydrazide] was 6.97.
In turn, `CN(NC(=O)CS(=O)(=O)NN(C)C(=S)c1ccsc1)C(=S)c1ccccc1` [Compound 57, N′-methyl-2-(2-methyl-2-(phenylcarbonothioyl)hydrazinyl)-2-oxo-N′-(thiophene-3-carbonothioyl)ethanesulfono-hydrazide] showed a pEC50 of 7.11.
With `CN(NC(=O)CS(=O)(=O)NN(C)C(=S)c1ccccc1)C(=S)c1ccsc1` [Compound 58, N′-methyl-2-(2-methyl-2-(thiophene-3-carbonothioyl)hydrazinyl)-2-oxo-N′-(phenylcarbonothioyl)ethane-sulfonohydrazide], the pEC50 is 7.11.
To `CN(NC(=O)CS(=O)(=O)NN(C)C(=S)c1csc2ccccc12)C(=S)c1ccccc1` [Compound 59] belongs 6.89; to `CN(NS(=O)(=O)CC(=O)NN1CCCCC1=S)C(=S)c1ccccc1` [Compound 66, 2-(2-methyl-2-(phenylcarbonothioyl)hydrazinyl-sulfonyl)-N′-(2-thioxopiperidin-1-yl)acetamide], 7.32.
The value for `CCN(CC)C(=S)N(C)NS(=O)(=O)CC(=O)NN(C)C(=S)c1ccccc1` [Compound 68, N,N-diethyl-1-methyl-2-(2-(2-methyl-2-(phenylcarbonothioyl)hydrazinyl)-2-oxoethylsulfonyl)hydrazine-carbothioamide] was 7.20.
To `CCN(CC)C(=S)N(C)NC(=O)CS(=O)(=O)NN(C)C(=S)c1ccccc1` [Compound 69, N,N′-diethyl-1-methyl-2-(2-(2-methyl-2-(phenylcarbonothioyl)hydrazinyl-sulfonyl)acetyl)hydrazine-carbothioamide] belongs 7.07; to `CCN(CC)C(=S)N(C)NS(=O)(=O)CC(=O)NN(C)C(=S)c1cnccn1` [Compound 70, N,N′-diethyl-1-methyl-2-(2-(2-methyl-2-(pyrazine-2-carbonothioyl)hydrazinyl)-2-oxoethylsulfonyl)hydrazine-carbothioamide], 6.90; to `CN(NC(=O)CS(=O)(=O)NN(C)C(=S)C1CC1)C(=S)c1cnco1` [Compound 74, N′-(cyclopropanecarbonothioyl)-N′-methyl-2-(2-methyl-2-(oxazole-5-carbonothioyl)hydrazinyl)-2-oxoethanesulfonohydrazide], 6.52.
With `CCCCN(NS(=O)(=O)CC(=O)NN(C)C(=S)c1ccccc1)C(=S)c1ccccc1` [Compound 75, N′-butyl-2-(2-methyl-2-(phenylcarbonothioyl)hydrazinyl)-2-oxo-N′-(phenylcarbonothioyl) ethanesulfonohydrazide], the pEC50 is 6.09.
Consider `CN(NS(=O)(=O)CC(=O)NN(C)C(=S)C1CC1)C(=S)c1cncs1` [Compound 76, 2-(2-(cyclopropanecarbonothioyl)-2-methylhydrazinyl)-N′-methyl-2-oxo-N′-(thiazole-5-carbonothioyl)-ethanesulfonohydrazide], for which the pEC50 was 5.93.
To `CN(NS(=O)(=O)CC(=O)NN(C)C(=S)C1CC1)C(=S)c1cnco1` [Compound 77, 2-(2-(cyclopropanecarbonothioyl)-2-methylhydrazinyl)-N′-methyl-N′-(oxazole-5-carbonothioyl)-2-oxoethanesulfonohydrazide] belongs 6.01; to `CN(NC(=O)CS(=O)(=O)NN(C)C(=S)c1ccccc1F)C(=S)c1ccccc1` [Compound 80, N′-(2-fluorophenylcarbonothioyl)-N′-methyl-2-(2-methyl-2-(phenylcarbonothioyl)hydrazinyl)-2-oxoethanesulfonohydrazide], 6.86; to `CN(NS(=O)(=O)CC(=O)NN(C)C(=S)c1ccccc1C(F)(F)F)C(=S)c1ccccc1` [Compound 81, N′-methyl-2-(2-methyl-2-(2-(trifluoromethyl)phenylcarbono-thioyl)hydrazinyl)-2-oxo-N′-(phenylcarbonothioyl)ethane-sulfonohydrazide], 6.45.
The value for `CN(NS(=O)(=O)CC(=O)NN(C)C(=S)c1ccccc1F)C(=S)c1ccccc1` [Compound 82, 2-(2-(2-fluorophenylcarbonothioyl)-2-methylhydrazinyl)-N′-methyl-2-oxo-N′-(phenylcarbonothioyl)ethane-sulfonohydrazide] was 6.76.
Molecule `CN(NC(=O)CS(=O)(=O)NN(C)C(=S)C1CC1)C(=S)c1cccc(C(F)(F)F)n1` [Compound 84, N′-(cyclopropanecarbonothioyl)-N′-methyl-2-(2-methyl-2-(6-(trifluoromethyl)pyridine-2-carbonothioyl)hydrazinyl)-2-oxoethanesulfonohydrazide] showed a pEC50 of 6.84.
To `COCC(=S)N(C)NC(=O)CS(=O)(=O)NN(C)C(=S)c1ccccc1` [Compound 85, 2-(2-(2-methoxyethanethioyl)-2-methylhydrazinyl)-N′-methyl-2-oxo-N′-(phenylcarbonothioyl)ethane-sulfonohydrazide] belongs 7.22; to `CC(=S)N(C)NC(=O)CS(=O)(=O)NN(C)C(=S)c1ccccc1` [Compound 86, 2-(2-ethanethioyl-2-methylhydrazinyl)-N′-methyl-2-oxo-N′-(phenylcarbonothioyl)ethane-sulfonohydrazide], 7.68.
The molecule `CN(NC(=O)C(=CN)S(=O)(=O)NN(C)C(=S)C1CC1)C(=S)C1CC1` [Compound 87, 1-amino-N′-(cyclopropanecarbonothioyl)-3-(2-(cyclopropanecarbonothioyl)-2-methyl-hydrazinyl)-N′-methyl-3-oxoprop-1-ene-2-sulfonohydrazide] showed a pEC50 of 6.95.
To `CN(C)C=C(C(=O)NN(C)C(=S)C1CC1)S(=O)(=O)NN(C)C(=S)C1CC1` [Compound 88, N′-(cyclopropanecarbonothioyl)-3-(2-(cyclopropanecarbonothioyl)-2-methylhydrazinyl)-1-(dimethylamino)-N′-methyl-3-oxoprop-1-ene-2-sulfonohydrazide] belongs 6.68; to `CNC=C(C(=O)NN(C)C(=S)C1CC1)S(=O)(=O)NN(C)C(=S)C1CC1` [Compound 89, N′-(cyclopropanecarbonothioyl)-3-(2-(cyclopropanecarbonothioyl)-2-methylhydrazinyl)-N′-methyl-1-(methylamino)-3-oxoprop-1-ene-2-sulfonohydrazide], 6.70; to `CN(NC(=O)C(=CNC1CC1)S(=O)(=O)NN(C)C(=S)C1CC1)C(=S)C1CC1` [Compound 90, N′-(cyclopropanecarbonothioyl)-3-(2-(cyclopropanecarbonothioyl)-2-methylhydrazinyl)-1-(cyclopropylamino)-N′-methyl-3-oxoprop-1-ene-2-sulfonohydrazide], 6.64.
In turn, `CC(C)NC=C(C(=O)NN(C)C(=S)C1CC1)S(=O)(=O)NN(C)C(=S)C1CC1` [Compound 91, N′-(cyclopropanecarbonothioyl)-3-(2-(cyclopropanecarbonothioyl)-2-methylhydrazinyl)-1-(isopropylamino)-N′-methyl-3-oxoprop-1-ene-2-sulfonohydrazide] showed a pEC50 of 6.64.

Source of the values: patent US8680100B2, “Sulfonylhydrazide compounds for treating proliferative disorders” (Synta Pharmaceuticals Corp., priority 2008, dated 2014).
